Data from paper PMC9518264, “Design and synthesis of novel quinazolinone-based derivatives as EGFR inhibitors with antitumor activity” (Journal of Enzyme Inhibition and Medicinal Chemistry, 2022).

What was measured:
[1] = system: NCI-H460; assay: cells; assay type: cell-based; details: Homo sapiens; NCI-H460; 10 μM; read-out: growth inhibition % (GI%)
[2] = system: SK-OV-3; assay: cells; assay type: cell-based; details: Homo sapiens; SK-OV-3; 10 μM; read-out: growth inhibition % (GI%)
[3] = system: NCI-H226; assay: cells; assay type: cell-based; details: Homo sapiens; NCI-H226; 10 μM; read-out: growth inhibition % (GI%)
[4] = system: NCI-H322M; assay: cells; assay type: cell-based; details: Homo sapiens, 10 μM, read-out: growth inhibition % (GI%)
[5] = system: OVCAR-3; assay: NCI 60 cell line antiproliferative screening (SRB), Ovarian cancer; details: Homo sapiens, OVCAR-3, read-out: growth inhibition % (GI%)
[6] = system: CCRF-CEM; assay: cells; assay type: cell-based; details: Homo sapiens, 10 μM, read-out: growth inhibition % (GI%)
[7] = system: TK-10; assay: cells; assay type: cell-based; details: Homo sapiens; TK-10; 10 μM; read-out: growth inhibition % (GI%)
[8] = system: LOX IMIV; assay: cells; assay type: cell-based; details: Homo sapiens, 60 cell; LOX IMIV; 10 μM; read-out: growth inhibition % (GI%)
[9] = system: SK-MEL-5; assay: cells; assay type: cell-based; details: Homo sapiens; SK-MEL-5; 10 μM; read-out: growth inhibition % (GI%)
[10] = system: NCI/ADR-RES; assay: cells; assay type: cell-based; details: Homo sapiens, 10 μM, read-out: growth inhibition % (GI%)
[11] = system: T-47D; assay: cells; assay type: cell-based; details: Homo sapiens, T47D; T-47D; 10 μM; read-out: growth inhibition % (GI%)
[12] = system: SF-295; assay: cells; assay type: cell-based; details: Homo sapiens; SF-295; 10 μM; read-out: growth inhibition % (GI%)
[13] = system: MOLT-4; assay: cells; assay type: cell-based; details: Homo sapiens; MOLT-4; 10 μM; read-out: growth inhibition % (GI%)
[14] = system: IGROV1; assay: cells; assay type: cell-based; details: Homo sapiens, IGROV-1; IGROV1; 10 μM; read-out: growth inhibition % (GI%)
[15] = system: SF-268; assay: cells; assay type: cell-based; details: Homo sapiens; SF-268; 10 μM; read-out: growth inhibition % (GI%)
[16] = system: panel of 60 tumour cell lines; assay: NCI 60 cell line antiproliferative screening (SRB), whole panel or subpanels (means, ranges, words); assay type: cell-based, human; details: for antiproliferative activity against all tested cell lines: 10 μM single dose; for inhibition at 10 µM: Homo sapiens, 60 cell, mean over the cell line panel, read-out: Mean growth inhibition % (mean GI%)
[17] = system: MCF7; assay: cells; assay type: cell-based; details: Homo sapiens; MCF7; 10 μM; read-out: growth inhibition % (GI%)
[18] = system: UACC-62; assay: cells; assay type: cell-based; details: Homo sapiens; UACC-62; 10 μM; read-out: growth inhibition % (GI%)
[19] = system: PC-3; assay: cells; assay type: cell-based; details: Homo sapiens; PC-3; 10 μM; read-out: growth inhibition % (GI%)
[20] = system: HS 578T; assay: cells; assay type: cell-based; details: Homo sapiens; HS 578T; 10 μM; read-out: growth inhibition % (GI%)
[21] = system: NCI-H522; assay: cells; assay type: cell-based; details: Homo sapiens; NCI-H522; 10 μM; read-out: growth inhibition % (GI%)
[22] = system: RPMI-8226; assay: cells; assay type: cell-based; details: Homo sapiens; RPMI-8226; 10 μM; read-out: growth inhibition % (GI%)
[23] = system: SK-MEL-2; assay: cells; assay type: cell-based; details: Homo sapiens; SK-MEL-2; 10 μM; read-out: growth inhibition % (GI%)
[24] = system: COLO-205; assay: cells; assay type: cell-based; details: Homo sapiens; COLO-205; 10 μM; read-out: growth inhibition % (GI%)
[25] = system: HCT-15; assay: cells; assay type: cell-based; details: Homo sapiens; HCT-15; 10 μM; read-out: growth inhibition % (GI%)
[26] = system: HCT-116; assay: cells; assay type: cell-based; details: Homo sapiens; HCT-116; 10 μM; read-out: growth inhibition % (GI%)
[27] = system: A549/ATCC; assay: cells; assay type: cell-based; details: Homo sapiens; A549/ATCC; 10 μM; read-out: growth inhibition % (GI%)
[28] = system: EKVX; assay: cells; assay type: cell-based; details: Homo sapiens, 10 μM, read-out: growth inhibition % (GI%)
[29] = system: MDA-MB-435; assay: cells; assay type: cell-based; details: Homo sapiens; MDA-MB-435; 10 μM; read-out: growth inhibition % (GI%)
[30] = system: K-562; assay: cells; assay type: cell-based; details: Homo sapiens, K562; K-562; 10 μM; read-out: growth inhibition % (GI%)
[31] = system: U251; assay: cells; assay type: cell-based; details: Homo sapiens, U-251; U251; 10 μM; read-out: growth inhibition % (GI%)
[32] = system: SR; assay: cells; assay type: cell-based; details: Homo sapiens, 10 μM, read-out: growth inhibition % (GI%)
[33] = system: BT-549; assay: cells; assay type: cell-based; details: Homo sapiens; BT-549; 10 μM; read-out: growth inhibition % (GI%)
[34] = system: OVCAR-4; assay: cells; assay type: cell-based; details: Homo sapiens; OVCAR-4; 10 μM; read-out: growth inhibition % (GI%)
[35] = system: HOP-92; assay: cells; assay type: cell-based; details: Homo sapiens; HOP-92; 10 μM; read-out: growth inhibition % (GI%)
[36] = system: KM12; assay: cells; assay type: cell-based; details: Homo sapiens; KM12; 10 μM; read-out: growth inhibition % (GI%)
[37] = system: HCC-2998; assay: cells; assay type: cell-based; details: Homo sapiens; HCC-2998; 10 μM; read-out: growth inhibition % (GI%)
[38] = system: OVCAR-8; assay: cells; assay type: cell-based; details: Homo sapiens; OVCAR-8; 10 μM; read-out: growth inhibition % (GI%)
[39] = system: UO-31; assay: cells; assay type: cell-based; details: Homo sapiens; UO-31; 10 μM; read-out: growth inhibition % (GI%)
[40] = system: A498; assay: cells; assay type: cell-based; details: Homo sapiens; A498; 10 μM; read-out: growth inhibition % (GI%)
[41] = system: SF-539; assay: cells; assay type: cell-based; details: Homo sapiens; SF-539; 10 μM; read-out: growth inhibition % (GI%)
[42] = system: UACC-257; assay: cells; assay type: cell-based; details: Homo sapiens; UACC-257; 10 μM; read-out: growth inhibition % (GI%)
[43] = system: HT29; assay: cells; assay type: cell-based; details: Homo sapiens, HT-29; HT29; 10 μM; read-out: growth inhibition % (GI%)
[44] = system: SN12C; assay: cells; assay type: cell-based; details: Homo sapiens, 10 μM, read-out: growth inhibition % (GI%)
[45] = system: SNB-19; assay: cells; assay type: cell-based; details: Homo sapiens; SNB-19; 10 μM; read-out: growth inhibition % (GI%)
[46] = system: MALME-3M; assay: cells; assay type: cell-based; details: Homo sapiens; MALME-3M; 10 μM; read-out: growth inhibition % (GI%)
[47] = system: SNB-75; assay: cells; assay type: cell-based; details: Homo sapiens; SNB-75; 10 μM; read-out: growth inhibition % (GI%)

O=C(CSc1nc2ccccc2c(=O)n1-c1ccc(Cl)cc1)NN=Cc1ccc(N2CCOCC2)cc1 [6k, 2-((3–(4-chlorophenyl)-4-oxo-3,4-dihydroquinazolin-2-yl)thio)-N'-(4-morpholinobenzylidene) acetohydrazide] showed an inhibition at 10 µM [1] of under 15%, an inhibition at 10 µM [2] of under 15% and an inhibition at 10 µM [3] of under 15%. The inhibition at 10 µM [4] was under 15%, the inhibition at 10 µM [5] was under 15% and the inhibition at 10 µM [6] was under 15%. It also gave an inhibition at 10 µM [7] of under 15%, an inhibition at 10 µM [8] of under 15% and an inhibition at 10 µM [9] of under 15%. It also gave an inhibition at 10 µM [10] of under 15%, an inhibition at 10 µM [11] of under 15% and an inhibition at 10 µM [12] of under 15%. For the same compound, the inhibition at 10 µM [13] was under 15%, the inhibition at 10 µM [14] was under 15% and the inhibition at 10 µM [15] was under 15%. The “antiproliferative activity against all tested cell lines” value [16] was “did not show activity”, the inhibition at 10 µM [16] was under 0% and the inhibition at 10 µM [17] was under 15%. The inhibition at 10 µM [18] was under 15%, the inhibition at 10 µM [19] was under 15% and the inhibition at 10 µM [20] was under 15%. The inhibition at 10 µM [21] was under 15%, the inhibition at 10 µM [22] was under 15% and the inhibition at 10 µM [23] was under 15%. It also gave an inhibition at 10 µM [24] of under 15%, an inhibition at 10 µM [25] of under 15% and an inhibition at 10 µM [26] of under 15%. For the same compound, the inhibition at 10 µM [27] was under 15%, the inhibition at 10 µM [28] was under 15% and the inhibition at 10 µM [29] was under 15%. For the same compound, the inhibition at 10 µM [30] was under 15%, the inhibition at 10 µM [31] was under 15% and the inhibition at 10 µM [32] was under 15%. For the same compound, the inhibition at 10 µM [33] was under 15%, the inhibition at 10 µM [34] was under 15% and the inhibition at 10 µM [35] was under 15%. It also gave an inhibition at 10 µM [36] of under 15%, an inhibition at 10 µM [37] of under 15% and an inhibition at 10 µM [38] of under 15%. It also gave an inhibition at 10 µM [39] of under 15%, an inhibition at 10 µM [40] of under 15% and an inhibition at 10 µM [41] of under 15%. For the same compound, the inhibition at 10 µM [42] was under 15%, the inhibition at 10 µM [43] was under 15% and the inhibition at 10 µM [44] was under 15%. For the same compound, the inhibition at 10 µM [45] was under 15%, the inhibition at 10 µM [46] was under 15% and the inhibition at 10 µM [47] was under 15%.

CN1CCN(c2ccc(C=NNC(=O)CSc3nc4ccccc4c(=O)n3-c3ccc(Cl)cc3)cc2)CC1 [6l, 2-((3–(4-chlorophenyl)-4-oxo-3,4-dihydroquinazolin-2-yl)thio)-N'-(4–(4-methylpiperazin-1-yl)benzylidene)acetohydrazide] showed an inhibition at 10 µM [1] of under 15%, an inhibition at 10 µM [2] of under 15% and an inhibition at 10 µM [3] of under 15%. It also gave an inhibition at 10 µM [4] of under 15%, an inhibition at 10 µM [5] of under 15% and an inhibition at 10 µM [6] of under 15%. It also gave an inhibition at 10 µM [7] of under 15%, an inhibition at 10 µM [8] of 15.2% and an inhibition at 10 µM [9] of under 15%. The inhibition at 10 µM [10] was under 15%, the inhibition at 10 µM [11] was under 15% and the inhibition at 10 µM [12] was under 15%. For the same compound, the inhibition at 10 µM [13] was under 15%, the inhibition at 10 µM [14] was under 15% and the inhibition at 10 µM [15] was under 15%. For the same compound, the “antiproliferative activity against all tested cell lines” value [16] was “did not show activity”, the inhibition at 10 µM [16] was under 0% and the inhibition at 10 µM [17] was under 15%. It also gave an inhibition at 10 µM [18] of under 15%, an inhibition at 10 µM [19] of under 15% and an inhibition at 10 µM [20] of under 15%. For the same compound, the inhibition at 10 µM [21] was under 15%, the inhibition at 10 µM [22] was under 15% and the inhibition at 10 µM [23] was under 15%. It also gave an inhibition at 10 µM [24] of under 15%, an inhibition at 10 µM [25] of under 15% and an inhibition at 10 µM [26] of under 15%. For the same compound, the inhibition at 10 µM [27] was under 15%, the inhibition at 10 µM [28] was under 15% and the inhibition at 10 µM [29] was under 15%. It also gave an inhibition at 10 µM [30] of under 15%, an inhibition at 10 µM [31] of under 15% and an inhibition at 10 µM [32] of under 15%. It also gave an inhibition at 10 µM [33] of under 15%, an inhibition at 10 µM [34] of under 15% and an inhibition at 10 µM [35] of under 15%. For the same compound, the inhibition at 10 µM [36] was under 15%, the inhibition at 10 µM [37] was under 15% and the inhibition at 10 µM [38] was under 15%. The inhibition at 10 µM [39] was under 15%, the inhibition at 10 µM [40] was 32.6% and the inhibition at 10 µM [41] was under 15%. It also gave an inhibition at 10 µM [42] of under 15%, an inhibition at 10 µM [43] of under 15% and an inhibition at 10 µM [44] of under 15%. For the same compound, the inhibition at 10 µM [45] was under 15%, the inhibition at 10 µM [46] was under 15% and the inhibition at 10 µM [47] was under 15%.
